Experimental findings from patent US20240132431A1, “METHOD FOR ALKYLATING ACIDIC FUNCTIONAL GROUP” (Chugai Seiyaku Kabushiki Kaisha, priority 2021, published 2024) are described below.

This test deals with T1, Bcl-2 protein (Recombinant Human Bcl-2 Protein) (Homo sapiens, UniProt P10415).
T1 construct: purchased Novus NBP2-34889
The test is described as follows: Binding evaluation of mixture library compounds to Bcl-2 using AS-MS (affinity selection mass spectrometry). The settings on record: AS-MS on the mixture of 1200 library compounds, ASMS Ratio(%)=(A−C)/B×100; for ASMS ratio (%) n = 1: replicate n = 1; for ASMS ratio (%) n = 2: replicate n = 2. In short, it runs like this: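 Bcl-2 binding is scored from LC/MS signal retained with protein through gel-filtration spin columns, normalised to unfiltered and protein-free controls. Incubation: 20 μM protein, […] per compound, 1 h, 23° C.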

SMILES strings stand for the structures.

T1 sequence (P10415 whole entry): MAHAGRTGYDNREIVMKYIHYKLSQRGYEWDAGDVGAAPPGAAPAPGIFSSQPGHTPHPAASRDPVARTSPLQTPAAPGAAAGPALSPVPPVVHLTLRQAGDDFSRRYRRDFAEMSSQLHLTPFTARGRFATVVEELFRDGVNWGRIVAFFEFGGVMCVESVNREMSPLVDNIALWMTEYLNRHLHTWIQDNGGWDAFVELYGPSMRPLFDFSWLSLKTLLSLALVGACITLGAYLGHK

With `CCOc1cncc(-c2cc(C(=O)N3CCN(c4ccc(C(=O)Nc5ccc(OC)cc5)cc4)CC3)cc(C(C)(C)C)c2)c1` [B1O038-01, 4-[4-[3-tert-Butyl-5-(5-ethoxypyridin-3-yl)benzoyl]piperazin-1-yl]-N-(4-methoxyphenyl)benzamide], the “ASMS ratio (%) n = 1” value is 2.8% and the “ASMS ratio (%) n = 2” value is −0.7%.

`CCOc1cccc(-c2cc(C(=O)N3CCN(c4ccc(C(=O)Nc5ccc(OC)cc5)cc4)CC3)cc(C(F)(F)F)c2)c1` [B1O039-01, 4-[4-[3-(3-Ethoxyphenyl)-5-(trifluoromethyl)benzoyl]piperazin-1-yl]-N-(4-methoxyphenyl)benzamide]: the “ASMS ratio (%) n = 1” value was 5.1% and the “ASMS ratio (%) n = 2” value is listed as 0.2%.

`CCOc1cncc(-c2cc(C(=O)N3CCN(c4ccc(C(=O)Nc5ccc(OC)cc5)cc4)CC3)cc(C(F)(F)F)c2)c1` [B1O040-01, 4-[4-[3-(5-Ethoxypyridin-3-yl)-5-(trifluoromethyl)benzoyl]piperazin-1-yl]-N-(4-methoxyphenyl)benzamide]: the “ASMS ratio (%) n = 1” value worked out at 1.8% and the “ASMS ratio (%) n = 2” value was 0.3%.

Consider `CCOc1cccc(C#Cc2cc(C(=O)N3CCN(c4ccc(C(=O)Nc5ccc(OC)cc5)cc4)CC3)cc(C(F)(F)F)c2)c1` [B1O041-01, 4-[4-[3-[2-(3-Ethoxyphenyl)ethynyl]-5-(trifluoromethyl)benzoyl]piperazin-1-yl]-N-(4-methoxyphenyl)benzamide], for which the “ASMS ratio (%) n = 1” value was determined as 10.4% and the “ASMS ratio (%) n = 2” value is recorded as −2.8%.

`CCOc1cncc(C#Cc2cc(C(=O)N3CCN(c4ccc(C(=O)Nc5ccc(OC)cc5)cc4)CC3)cc(C(F)(F)F)c2)c1` [B1O042-01, 4-[4-[3-[2-(5-Ethoxypyridin-3-yl)ethynyl]-5-(trifluoromethyl)benzoyl]piperazin-1-yl]-N-(4-methoxyphenyl)benzamide]: the “ASMS ratio (%) n = 1” value is 2.8% and the “ASMS ratio (%) n = 2” value was found to be 2.1%.

As to `CCOc1cccc(-c2cnn(-c3cc(C(=O)N4CCN(c5ccc(C(=O)Nc6ccc(OC)cc6)cc5)CC4)cc(C(F)(F)F)c3)c2)c1` [B1O043-01, 4-[4-[3-[4-(3-Ethoxyphenyl)pyrazol-1-yl]-5-(trifluoromethyl)benzoyl]piperazin-1-yl]-N-(4-methoxyphenyl)benzamide], the “ASMS ratio (%) n = 1” value is reported as 2.2% and the “ASMS ratio (%) n = 2” value was −5.0%.

For the molecule `CCOc1cncc(-c2cnn(-c3cc(C(=O)N4CCN(c5ccc(C(=O)Nc6ccc(OC)cc6)cc5)CC4)cc(C(F)(F)F)c3)c2)c1` [B1O044-01, 4-[4-[3-[4-(5-Ethoxypyridin-3-yl)pyrazol-1-yl]-5-(trifluoromethyl)benzoyl]piperazin-1-yl]-N-(4-methoxyphenyl)benzamide], the “ASMS ratio (%) n = 1” value was 5.8% and the “ASMS ratio (%) n = 2” value is reported as 0.4%.

With `CCOc1cccc(-c2ccccc2CN2CCN(c3ccc(C(=O)Nc4ccc(OC)cc4)cc3)CC2)c1` [B1O045-01, 4-[4-[[2-(3-Ethoxyphenyl)phenyl]methyl]piperazin-1-yl]-N-(4-methoxyphenyl)benzamide], the “ASMS ratio (%) n = 1” value amounted to 0.0% and the “ASMS ratio (%) n = 2” value is reported as 0.0%.

Consider `CCOc1cncc(-c2ccccc2CN2CCN(c3ccc(C(=O)Nc4ccc(OC)cc4)cc3)CC2)c1` [B1O046-01, 4-[4-[[2-(5-Ethoxypyridin-3-yl)phenyl]methyl]piperazin-1-yl]-N-(4-methoxyphenyl)benzamide], for which the “ASMS ratio (%) n = 1” value was determined as 0.6% and the “ASMS ratio (%) n = 2” value is 1.3%.

For `CCOc1cccc(-c2ccc(CN3CCN(c4ccc(C(=O)Nc5ccc(OC)cc5)cc4)CC3)cc2C)c1` [B1O047-01, 4-[4-[[4-(3-Ethoxyphenyl)-3-methylphenyl]methyl]piperazin-1-yl]-N-(4-methoxyphenyl)benzamide], the “ASMS ratio (%) n = 1” value came out at 4.1% and the “ASMS ratio (%) n = 2” value is 1.5%.

Regarding `CCOc1cncc(-c2ccc(CN3CCN(c4ccc(C(=O)Nc5ccc(OC)cc5)cc4)CC3)cc2C)c1` [B1O048-01, 4-[4-[[4-(5-Ethoxypyridin-3-yl)-3-methylphenyl]methyl]piperazin-1-yl]-N-(4-methoxyphenyl)benzamide], the “ASMS ratio (%) n = 1” value is given as −0.3% and the “ASMS ratio (%) n = 2” value is listed as −1.6%.

Regarding `CCOc1cccc(-c2ccc(CN3CCN(c4ccc(C(=O)Nc5ccc(OC)cc5)cc4)CC3)c(CC)c2)c1` [B1O049-01, 4-[4-[[4-(3-Ethoxyphenyl)-2-ethylphenyl]methyl]piperazin-1-yl]-N-(4-methoxyphenyl)benzamide], the “ASMS ratio (%) n = 1” value came to 6.1% and the “ASMS ratio (%) n = 2” value amounted to 0.0%.

As for `CCOc1cncc(-c2ccc(CN3CCN(c4ccc(C(=O)Nc5ccc(OC)cc5)cc4)CC3)c(CC)c2)c1` [B1O050-01], the “ASMS ratio (%) n = 1” value came out at 10.3% and the “ASMS ratio (%) n = 2” value is on record as −5.8%.

As to `CCOc1cccc(-c2ccc(CN3CCN(c4ccc(C(=O)Nc5ccc(OC)cc5)cc4)CC3)cc2F)c1` [B1O051-01, 4-[4-[[4-(3-Ethoxyphenyl)-3-fluorophenyl]methyl]piperazin-1-yl]-N-(4-methoxyphenyl)benzamide], the “ASMS ratio (%) n = 1” value came to 3.9% and the “ASMS ratio (%) n = 2” value was −1.9%.

In the case of `CCOc1cncc(-c2ccc(CN3CCN(c4ccc(C(=O)Nc5ccc(OC)cc5)cc4)CC3)cc2F)c1` [B1O052-01, 4-[4-[[4-(5-Ethoxypyridin-3-yl)-3-fluorophenyl]methyl]piperazin-1-yl]-N-(4-methoxyphenyl)benzamide], the “ASMS ratio (%) n = 1” value stood at 1.6% and the “ASMS ratio (%) n = 2” value amounted to 0.4%.

`CCOc1cccc(-c2ccc(CN3CCN(c4ccc(C(=O)Nc5ccc(OC)cc5)cc4)CC3)c(OC)c2)c1` [B1O053-01, 4-[4-[[4-(3-Ethoxyphenyl)-2-methoxyphenyl]methyl]piperazin-1-yl]-N-(4-methoxyphenyl)benzamide]: the “ASMS ratio (%) n = 1” value is 2.2% and the “ASMS ratio (%) n = 2” value is reported as −1.0%.

Regarding `CCOc1cncc(-c2ccc(CN3CCN(c4ccc(C(=O)Nc5ccc(OC)cc5)cc4)CC3)c(OC)c2)c1` [B1O054-01, 4-[4-[[4-(5-Ethoxypyridin-3-yl)-2-methoxyphenyl]methyl]piperazin-1-yl]-N-(4-methoxyphenyl)benzamide], the “ASMS ratio (%) n = 1” value is reported as 2.6% and the “ASMS ratio (%) n = 2” value was determined as 3.2%.

`CCOc1cccc(-c2cc(CN3CCN(c4ccc(C(=O)Nc5ccc(OC)cc5)cc4)CC3)cc(OCC)c2)c1` [B1O055-01]: the “ASMS ratio (%) n = 1” value was 3.0% and the “ASMS ratio (%) n = 2” value is reported as −4.2%.

Consider `CCOc1cncc(-c2cc(CN3CCN(c4ccc(C(=O)Nc5ccc(OC)cc5)cc4)CC3)cc(OCC)c2)c1` [B1O056-01, 4-[4-[[3-Ethoxy-5-(5-ethoxypyridin-3-yl)phenyl]methyl]piperazin-1-yl]-N-(4-methoxyphenyl)benzamide], for which the “ASMS ratio (%) n = 1” value stood at 6.7% and the “ASMS ratio (%) n = 2” value was −0.9%.

Turning to `CCOc1cccc(-c2cc(CN3CCN(c4ccc(C(=O)Nc5ccc(OC)cc5)cc4)CC3)cc(OC(C)C)c2)c1` [B1O057-01, 4-[4-[[3-(3-Ethoxyphenyl)-5-propan-2-yloxyphenyl]methyl]piperazin-1-yl]-N-(4-methoxyphenyl)benzamide], the “ASMS ratio (%) n = 1” value was found to be 4.1% and the “ASMS ratio (%) n = 2” value is −2.2%.

As to `CCOc1cncc(-c2cc(CN3CCN(c4ccc(C(=O)Nc5ccc(OC)cc5)cc4)CC3)cc(OC(C)C)c2)c1` [B1O058-01], the “ASMS ratio (%) n = 1” value is recorded as −3.5% and the “ASMS ratio (%) n = 2” value stood at 4.4%.

`CCOc1cccc(-c2cc(OC)c(CN3CCN(c4ccc(C(=O)Nc5ccc(OC)cc5)cc4)CC3)c(OC)c2)c1` [B1O059-01, 4-[4-[[4-(3-Ethoxyphenyl)-2,6-dimethoxyphenyl]methyl]piperazin-1-yl]-N-(4-methoxyphenyl)benzamide]: the “ASMS ratio (%) n = 1” value was 2.0% and the “ASMS ratio (%) n = 2” value is on record as −1.9%.

Turning to `CCOc1cncc(-c2cc(OC)c(CN3CCN(c4ccc(C(=O)Nc5ccc(OC)cc5)cc4)CC3)c(OC)c2)c1` [B1O060-01, 4-[4-[[4-(5-Ethoxypyridin-3-yl)-2,6-dimethoxyphenyl]methyl]piperazin-1-yl]-N-(4-methoxyphenyl)benzamide], the “ASMS ratio (%) n = 1” value is reported as 0.6% and the “ASMS ratio (%) n = 2” value is given as −1.8%.

Regarding `CCOc1cccc(-c2cc(CN3CCN(c4ccc(C(=O)Nc5ccc(OC)cc5)cc4)CC3)cc(C(F)(F)F)c2)c1` [B1O061-01, 4-[4-[[3-(3-Ethoxyphenyl)-5-(trifluoromethyl)phenyl]methyl]piperazin-1-yl]-N-(4-methoxyphenyl)benzamide], the “ASMS ratio (%) n = 1” value worked out at 1.9% and the “ASMS ratio (%) n = 2” value was −1.5%.

For the molecule `CCOc1cncc(-c2cc(CN3CCN(c4ccc(C(=O)Nc5ccc(OC)cc5)cc4)CC3)cc(C(F)(F)F)c2)c1` [B1O062-01, 4-[4-[[3-(5-Ethoxypyridin-3-yl)-5-(trifluoromethyl)phenyl]methyl]piperazin-1-yl]-N-(4-methoxyphenyl)benzamide], the “ASMS ratio (%) n = 1” value is recorded as 1.3% and the “ASMS ratio (%) n = 2” value is 4.6%.

For the molecule `CCOc1cccc(-c2cc(CN3CCN(c4ccc(C(=O)Nc5ccc(OC)cc5)cc4)CC3)cc(OC(F)(F)F)c2)c1` [B1O063-01, 4-[4-[[3-(3-Ethoxyphenyl)-5-(trifluoromethoxy)phenyl]methyl]piperazin-1-yl]-N-(4-methoxyphenyl)benzamide], the “ASMS ratio (%) n = 1” value amounted to 3.5% and the “ASMS ratio (%) n = 2” value is −4.1%.

Take `CCOc1cncc(-c2cc(CN3CCN(c4ccc(C(=O)Nc5ccc(OC)cc5)cc4)CC3)cc(OC(F)(F)F)c2)c1` [B1O064-01, 4-[4-[[3-(5-Ethoxypyridin-3-yl)-5-(trifluoromethoxy)phenyl]methyl]piperazin-1-yl]-N-(4-methoxyphenyl)benzamide]: the “ASMS ratio (%) n = 1” value amounted to 0.7% and the “ASMS ratio (%) n = 2” value is recorded as −4.0%.
